Experimental data: patent US9044142B2, “Surgical optical systems for detecting brain tumors” (Carl Zeiss Meditec AG, priority 2010, dated 2015)

Legend:
GL261-luc glioma cells [1] = assay: Intraoperative confocal endomicroscopy of ICG distribution in GL261-luc glioma mouse model; assay type: in vivo; settings: 0.4 mg/kg intravenously, mice
Procedure: Thirty mice implanted with glioblastoma cells underwent craniectomies for exposure of tumors 14 days implantation. Tumors were clearly visible macroscopically and extended from cortical surface to deep basal brain structures. ICG was then administered using 0.4 mg/kg, equivalent to a standard single dose for humans (see, e.g., I. Roberts et al., Lancet 342, (1993)). […] Other regions presented a complex mixture of these patterns, with mostly normal-appearing brain punctuated by large pleomorphic cells consistent with an infiltrative margin or satellite tumor cell clusters surrounded by brain tissue. Importantly, patterns consistent with tumor morphology were also seen in brain tissue neighboring the tumor that appeared macroscopically normal as viewed via the surgical microscope. Critically, individual tumor cells within brain tissue could be identified within 475×475 μm field of view and a definitive tumor border delimited (FIGS. 2A-2D).
(§1) The GL261 cell line was obtained from the Division of Cancer Treatment and Diagnosis (DCTD) of the National Cancer Institute (NCl), Frederick, Md. […] The morphological, biochemical and growth characteristics of the GL261 mouse brain tumor model have been described elsewhere (see, e.g., M. Candolfi et al., J Neurooncol 85, 133 (November, 2007) and T. Szatmari et al., Cancer Sci 97, 546 (June, 2006)). To facilitate a quantitative measurement of the tumor growth rate, GL261 cells were made bioluminescent using the Lentiphos™ HT System (Clontech Laboratories, Inc., Mountain View, Calif.) with the Lenti-X™ HT Packaging Mix (Clontech Laboratories, Inc.) and the FUW-GL plasmid (a generous gift from the laboratory of J. B. Rubin, MD, PhD). The resulting GL261-luc cells were grown in Dulbecco's modified eagle's medium (DMEM, Invitrogen, Carlsbad, Calif.) supplemented with 10% tetracycline-free fetal calf serum (Clontech Laboratories, Inc) at 37° C. with 5% CO2. Cultured cells were harvested by trypsinization, washed once in phosphate-buffered saline (Invitrogen, Carlsbad, Calif.), and resuspended in DMEM without serum at a concentration of 1×10^7 cells/mL.
Animals were anesthetized by intraperitoneal injection of a mixture of 10 mg/kg xylazine and 80 mg/kg ketamine (Wyeth, Madison, N.J.). A 10-mm incision was made starting between the animal's eyes, exposing the bregma. A bur hole was made 0.1 mm posterior to the bregma and 2.3 mm right of the midline using a small animal stereotactic headframe (Model 900, David Kopf Instruments, Tujunga, Calif.). […]
This study was conducted in two main phases. The purpose of the first phase was to validate the use of ICG fluorescence in both intraoperative NIR macroscopic and miniaturized confocal endomicroscopic techniques for the identification of brain tumors in the mouse model. […]

GL261-luc glioma cells [2] = assay: Intraoperative NIR fluorescence macroscopy of ICG in GL261-luc glioma mouse model; assay type: in vivo
Text: as §1
Animals were anesthetized by intraperitoneal injection of a mixture of 10 mg/kg xylazine and 80 mg/kg ketamine (Wyeth, Madison, N.J.). A 10-mm incision was made starting between the animal's eyes, exposing the bregma. […]
This study was conducted in two main phases. The purpose of the first phase was to validate the use of ICG fluorescence in both intraoperative NIR macroscopic and miniaturized confocal endomicroscopic techniques for the identification of brain tumors in the mouse model. […] Several intraoperative fluorescence macroscopic video loops, confocal images, and histological specimens were collected and analyzed from each mouse. […] Two cohorts of animals were used in the second phase: (1) six mice were used for intraoperative fluorescence macroscopy and (2) six mice were used for intraoperative confocal endomicroscopy. […]

[3] = cited from earlier work
[4] = humans; cited from earlier work

SMILES: CC1(C)C(/C=C/C=C/C=C/C=C2\N(CCCCS(=O)(=O)O)c3ccc4ccccc4c3C2(C)C)=[N+](CCCCS(=O)(=O)[O-])c2ccc3ccccc3c21 [ICG, Indocyanine green]
- ICG distribution in normal-appearing brain distant from the tumor (confocal endomicroscopy) (GL261-luc glioma cells [1]): predominantly intravascular ICG distribution
- ICG distribution within obvious tumor tissue (confocal endomicroscopy) (GL261-luc glioma cells [1]): extravascular ICG concentrated in clusters of cellular structures
- ICG fluorescence of tumor cells (confocal endomicroscopy) (GL261-luc glioma cells [1]; fifteen minutes after ICG injection): entire tumor mass was saturated with ICG
- ICG fluorescence of tumor cells (confocal endomicroscopy) (GL261-luc glioma cells [1]; immediately after ICG injection): fluorescence was seen only in a few clusters of tumor cells
- intensity of macroscopic fluorescence in the central region of tumor (GL261-luc glioma cells [2]; 15 minutes after injection versus one minute): increased
- macroscopic tumor visibility with NIR light (GL261-luc glioma cells [2]; after ICG injection, tumor 14 days after implantation, mice): macroscopically visible
- macroscopic ICG fluorescence in vessels (GL261-luc glioma cells [2]; immediately after intravenous injection): could be observed in major vessels
- fraction of originally injected volume detectable in the blood ([3]; after 10 minutes): only a small fraction
- binding to globulins, preferentially to α1-lipoproteins ([3]; after intravenous injection): almost completely
- main source of clearance ([3]; in vivo): hepatic elimination
- metabolism in the body ([3]; in vivo): not metabolized
- toxicity [4]: one of the least toxic substances ever administered to humans
